Source: patent publication US12708616B2, “Compositions and methods of treating age-related retinal dysfunction” (THE REGENTS OF THE UNIVERSITY OF CALIFORNIA, priority 2020, dated 2026)
“Also recorded” adds a separate entry of the source.

Columns and labels:
[1] = tested on: HDACs 2, 4, 10, and 11; details: cited from earlier work
[2] = tested on: HDACs 6 and 7; details: cited from earlier work
[3] = tested on: HDAC; details: with exception for HDAC6; read-out: IC50 pan-HDAC; cited from earlier work
[4] = tested on: H3K9me3; assay: Quantitative Western blot of H3K9me3 (heterochromatin) in RPE/choroid of bleached dKO mice; assay type: in vivo, mouse; details: 60 mg/kg bw intraperitoneal 30 min prior to light exposure, 1 d post-bleach
Description: (§1) Male and female Abca4^−/−Rdh8^−/− mice at 6 to 8 weeks of age were used for the current study. These mice were maintained on a pigmented C57BL/6 background, and age-matched C57BL/6 mice from The Jackson Laboratory were used as wild-type controls. All mice were housed and maintained in a 12-hour light (≤150 lux)/12-hour dark cyclic environment in the University Laboratory Animal Resources center at the University of California, Irvine (UCI) School of Medicine. Bright light-induced retinal damage was generated by exposing photosensitive Abca4^−/−Rdh8^−/− mice to white light delivered at 10,000 lux (150-W spiral lamp, Commercial Electric, Cleveland, OH) for 30 min. Mice were dark-adapted 24 h prior to photobleaching, and pupils were dilated with 1% ophthalmic tropicamide 30 min prior to light exposure. […] All animal handling procedures and experimental protocols were approved by the Institutional Animal Care and Use Committee at UCI and conformed to recommendations of both the American Veterinary Medical Association (AVMA) Panel on Euthanasia and the Association for Research in Vision and Ophthalmology.
(§2) Fresh retina and RPE were harvested from study mice as described previously. […] The blots were imaged, and IR signals were quantified using a LI-COR Odyssey Fc imaging system.

[5] = tested on: Abca4−/−Rdh8−/− (dKO) mice; assay: SLO and OCT imaging of bright light-induced retinal damage; assay type: in vivo, mouse; details: 60 mg/kg bw intraperitoneal, 7 d after photobleaching
Description: Male and female Abca4^−/−Rdh8^−/− mice at 6 to 8 weeks of age were used for the current study. These mice were maintained on a pigmented C57BL/6 background, and age-matched C57BL/6 mice from The Jackson Laboratory were used as wild-type controls. All mice were housed and maintained in a 12-hour light (≤150 lux)/12-hour dark cyclic environment in the University Laboratory Animal Resources center at the University of California, Irvine (UCI) School of Medicine. Bright light-induced retinal damage was generated by exposing photosensitive Abca4^−/−Rdh8^−/− mice to white light delivered at 10,000 lux (150-W spiral lamp, Commercial Electric, Cleveland, OH) for 30 min. Mice were dark-adapted 24 h prior to photobleaching, and pupils were dilated with 1% ophthalmic tropicamide 30 min prior to light exposure. […]
Mice were anesthetized by intraperitoneal injection of ketamine (20 mg/mL) with xylazine (1.75 mg/mL) at a dose of 5 μL/g bw, and pupils were dilated with 1% tropicamide prior to imaging. […] For quantitative measurements of photoreceptor viability, ONL thickness was measured in the InVivoVue software at a distance of 0.45 mm from the optic nerve head in the temporal retina, where the most severe damage is found in bright light-exposed Abca4^−/−Rdh8^−/− mice. […]

[6] = tested on: H3K9me3; assay: Immunohistochemistry of H3K9me3 in retinal cross-sections of photobleached dKO mice; assay type: in vivo, mouse; details: 60 mg/kg bw intraperitoneal, 1 d after photobleaching, vs DMSO vehicle
Description: as §1
Mice were euthanized in a CO2 chamber prior to enucleation. […] Fluorescence microscopy images were obtained on a Keyence BZ-X810 fluorescent microscope.

[7] = tested on: HDAC4, 5, 6, 7, and 8; details: cited from earlier work
[8] = tested on: H3K27ac; assay: Quantitative Western blot of H3K27ac (euchromatin) in retina of photobleached dKO mice; assay type: in vivo, mouse; details: 60 mg/kg bw intraperitoneal 30 min prior to light exposure, 1 d post-bleach
Description: as §1, §2

[9] = tested on: other HDACs; details: cited from earlier work
[10] = tested on: HDAC11 substrate, serine hydroxymethyl transferase 2; details: cited from earlier work
[11] = target: T1, HDAC11 (Homo sapiens, UniProt Q96DB2); details: mammalian HDAC11; cited from earlier work
T1 sequence (Q96DB2 1-347): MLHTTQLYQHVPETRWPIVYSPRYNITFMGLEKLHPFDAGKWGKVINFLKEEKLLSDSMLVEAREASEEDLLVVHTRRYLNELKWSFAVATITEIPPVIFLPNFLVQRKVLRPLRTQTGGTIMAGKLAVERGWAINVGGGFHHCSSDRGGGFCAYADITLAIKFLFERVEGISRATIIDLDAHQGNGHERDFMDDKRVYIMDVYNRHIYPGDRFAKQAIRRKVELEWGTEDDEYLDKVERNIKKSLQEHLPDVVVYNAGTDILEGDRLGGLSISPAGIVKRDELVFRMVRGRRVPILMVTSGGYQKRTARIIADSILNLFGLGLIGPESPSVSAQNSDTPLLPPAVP

Cn1cc(CNCC2CCN(c3ncc(C(=O)NO)cn3)CC2)c2ccccc21 [Quisinostat]
Potency to HDACs 2, 4, 10, and 11 [1]: modest potent | Potency to HDACs 6 and 7 [2]: lowest potency

CCCCc1nc2cc(/C=C/C(=O)NO)ccc2n1CCN(CC)CC [Pracinostat]
IC50 [3]: 40 to 140 nM

COc1cc(OC)c(-c2cn3ccc(N4CC[C@H](NCc5ccncc5)C4)cc3n2)cc1Cl [OTS186935, (S)-1-(2-(5-chloro-2,4-dimethoxyphenyl)imidazo[1,2-a]pyridin-7-yl)-N-(pyridin-4-ylmethyl)pyrrolidin-3-amine]
Heterochromatin abundance (H3K9me3) in RPE/choroid [4]: attenuates the stress-induced increase in heterochromatin abundance | Stress-induced retinal pathology by SLO and OCT (ONL thickness) [5]: sufficient to ameliorate stress-induced retinal pathology; also recorded: ameliorated | H3K9me3 signal in retinal cross-sections (immunohistochemistry) [6]: attenuated

Nc1ccccc1NC(=O)c1ccc(CNc2nccc(-c3cccnc3)n2)cc1 [Mocetinostat]
Activity to HDAC4, 5, 6, 7, and 8 [7]: no activity | Stress-induced retinal pathology by SLO and OCT (ONL thickness) [5]: sufficient to ameliorate stress-induced retinal pathology; also recorded: ameliorated | Euchromatin abundance (H3K27ac) in retina [8]: rescues the stress-induced reduction in euchromatin abundance

CCCCCCCCCCCCCCCCNNC(=O)c1cccs1 [SIS17]
Inhibition of other HDACs [9]: without inhibiting other HDACs | Demyristoylation of serine hydroxymethyl transferase 2 [10]: inhibits the demyristoylation | IC50 [11]: 830 nM
